Results from patent US20190314353A1, “Pharmaceutical Compositions Comprising Alpelisib” (Novartis AG, priority 2014, published 2019).

Key:
[1] = test system: PIK3CA-mutant or amplified tumor xenograft models; assay: In vivo antitumor activity in tumor xenograft models; details: xenograft models such as breast, head and neck, and ovarian cancers
Text: (§1) (hereinafter, “Compound I”). […] As of Mar.

[2] = test system: advanced solid malignancies carrying an alteration in the PIK3CA gene; assay: Phase I clinical trial, single agent treatment, radiologic response (RECIST 1.0); format: in vivo, human; details: out of 131 patients evaluable for radiologic response, as of Mar. 10, 2014
Text: as §1

## Cc1nc(NC(=O)N2CCC[C@H]2C(N)=O)sc1-c1ccnc(C(C)(C)C(F)(F)F)c1 [Compound I, (S)-Pyrrolidine-1,2-dicarboxylic acid 2-amide 1-({4-methyl-5-[2-(2,2,2-trifluoro-1,1-dimethyl-ethyl)-pyridin-4-yl]-thiazol-2-yl}-amide)]
[1]
  in vivo antitumor activity: dose-dependent antitumor activity
[2]; PIK3CA-altered solid tumors
  patients with partial response to treatment: 15 patients
[2]
  patients with stable disease: 68 patients
